Activity calls are given as the source filed them. How the calls were made is not given here.

One data set concerns Bacteria. Briefly: Inhibition of bacterial CDP-ME kinase assessed as ATP depletion up to 57 uM measured by bioluminescent kinase Glo assay. Conditions: dose microM <=57.
Another data set relates to HEK293. As to the kind of experiment: Cytotoxicity against human HEK293 cells measured after 48 hrs by Cell Titer Glo assay. The data set is classed as toxicity, cell-based. Conditions: hek293, 48 h.

As to `CNC(=O)C1=C(C)NC(Nc2nc3ccccc3o2)=NC12CCCC2`, the inhibition result in the data set on Bacteria is “inactive”.

Take `O=C1CCCC2=C1C(c1ccncc1Br)N=C(Nc1nc3ccccc3o1)N2` (centres undefined): the inhibition entry in the data set with Bacteria is “inactive”.

As for `O=C1CCCC2=C1C1(CCCC1)N=C(Nc1nc3cc(-c4ccccc4)ccc3o1)N2`, the inhibition result in the data set with Bacteria is “inactive”. On to `O=C1CCCC2=C1C1(CCCC1)N=C(Nc1nc3ccccc3n1Cc1ccccc1)N2`, for which the inhibition entry with Bacteria is “inactive”.

Turning to `CC1=C(C(=O)Nc2ccon2)C(c2nn(C)cc2Cl)N=C(Nc2nc3ccccc3o2)N1` (centres undefined), the inhibition entry in the data set with Bacteria is “inactive”. Regarding `CC1(C)N=C(Nc2nc3ccccc3o2)NC2=C1C(=O)CCC2`, in the data set on Bacteria, the inhibition entry is “inactive”. Still for that read-out and setting: then `CC1=C(C(=O)N(C)c2ccccc2C)C(c2ccccc2Br)N=C(Nc2nc3ccccc3o2)N1` (centres undefined), with “inactive”; and `CC1=C(C(=O)Nc2nc3ccccc3s2)C(c2nn(C)cc2Cl)N=C(Nc2nc3ccccc3o2)N1` (centres undefined), with “inactive”; and `O=C1CCCC2=C1C(c1c(Cl)cccc1Cl)N=C(Nc1nc3ccccc3o1)N2` (centres undefined), with “inactive”. For the molecule `O=C1CCCC2=C1C1(CCCC1)N=C(Nc1nc3cc(Cl)ccc3o1)N2`, the inhibition result in the data set on Bacteria is “inactive”. The Activity entry in the data set with HEK293 is recorded as “Non-Toxic”. As for `CC1=C(C(=O)Nc2nncs2)C(c2nn(C)cc2Cl)N=C(Nc2nc3ccccc3o2)N1` (centres undefined), the inhibition entry with Bacteria was “inactive”. Regarding `O=C1CCCC2=C1C(c1ccc(F)cc1)N=C(Nc1nc3ccccc3o1)N2` (centres undefined), in the data set with Bacteria, the inhibition entry is “inactive”. For the molecule `O=C1CCCC2=C1C1(CCSCC1)N=C(Nc1nc3ccccc3o1)N2`, in the data set with Bacteria, the inhibition entry was “inactive”. With `CC1=C(C(=O)Nc2nccs2)C(c2ccccc2Br)N=C(Nc2nc3ccccc3o2)N1` (centres undefined), the inhibition entry in the data set on Bacteria is “inactive”. As for `Cc1cccc(C2N=C(Nc3nc4ccccc4o3)NC3=C2C(=O)CCC3)c1` (centres undefined), in the data set on Bacteria, the inhibition entry is “inactive”. As for `O=C1CCCC2=C1C(c1ccccc1I)N=C(Nc1nc3ccccc3o1)N2` (centres undefined), the inhibition result in the data set with Bacteria was “inactive”. As to `O=C1CCCC2=C1C(c1ncccc1C(F)(F)F)N=C(Nc1nc3ccccc3o1)N2` (centres undefined), the inhibition entry in the data set on Bacteria is “inactive”. On the same count and under the same terms, then `O=C1CCCC2=C1C1(CCSC1)N=C(Nc1nc3ccccc3o1)N2` (centres undefined), with “inactive”. Take `CC1(C)CC(=O)C2=C(C1)NC(Nc1nc3ccccc3o1)=NC21CCCC1`: the inhibition result in the data set with Bacteria is “inactive”. The Activity result with HEK293 is “Non-Toxic”. The corresponding values for `O=C1CC(c2ccccc2)CC2=C1C1(CCCCC1)N=C(Nc1nc3ccccc3o1)N2` (centres undefined) are “inactive” and “Non-Toxic”. `O=C1CCCC2=C1C(c1cccnc1)N=C(Nc1nc3ccccc3o1)N2` (centres undefined): the inhibition entry in the data set with Bacteria is “inactive”. `Cc1ccc(C2N=C(Nc3nc4ccccc4o3)NC3=C2C(=O)CCC3)cc1` (centres undefined): in the data set on Bacteria, the inhibition entry was “inactive”. `CC1=C(C(=O)Nc2nncs2)C(c2ccccc2Br)N=C(Nc2nc3ccccc3o2)N1` (centres undefined): the inhibition entry in the data set with Bacteria was “inactive”. Still for that read-out and setting: as for `CC1=C(C(=O)N(C)C)C(c2ccccc2Br)N=C(Nc2nc3ccccc3o2)N1` (centres undefined), the entry is “inactive”; as for `CC1=C(C(=O)n2ccc3ccccc32)C(c2ccccc2Br)N=C(Nc2nc3ccccc3o2)N1` (centres undefined), “inactive”; as for `O=C1CCCC2=C1C(c1cccnc1Cl)N=C(Nc1nc3ccccc3o1)N2` (centres undefined), “inactive”. Same read-out and setting: as for `CC1=C(C(=O)Nc2nc3ccccc3s2)C2(CCCC2)N=C(Nc2nc3ccccc3o2)N1`, the entry is “inactive”; as for `CC1=C(C(=O)NCc2ccccc2)C(c2ccccc2Br)N=C(Nc2nc3ccccc3o2)N1` (centres undefined), “inactive”; as for `O=C1CCC2=C1C(c1ccccc1Cl)N=C(Nc1nc3ccccc3o1)N2` (centres undefined), “inactive”. On the same count and under the same terms, as for `O=C1CCCC2=C1C(c1cnccc1C(F)(F)F)N=C(Nc1nc3ccccc3o1)N2` (centres undefined), the entry is “inactive”; as for `CNC(=O)C1=C(C)NC(Nc2nc3ccccc3o2)=NC1c1nn(C)cc1Cl` (centres undefined), “inactive”; as for `CC1=C(C(=O)Nc2ccc(Cl)cc2)C(c2ccccc2Br)N=C(Nc2nc3ccccc3o2)N1` (centres undefined), “inactive”. In the case of `COc1ccc(C2N=C(Nc3nc4ccccc4o3)NC3=C2C(=O)CCC3)cc1` (centres undefined), the inhibition result in the data set on Bacteria was “inactive”.

On to `O=C1CCCC2=C1[C@@]1(CCC(c3ccccc3)C1)N=C(Nc1nc3ccccc3o1)N2` (some centres undefined), for which, in the data set on Bacteria, the inhibition result is “inactive”. With `CC1=C(C(=O)Nc2nnc(-c3ccccc3)s2)C(c2n[nH]cc2Cl)N=C(Nc2nc3ccccc3o2)N1` (centres undefined), the inhibition result with Bacteria was “inactive”. On to `CC1=C(C(=O)Nc2noc3ccccc23)C(c2nn(C)cc2Cl)N=C(Nc2nc3ccccc3o2)N1` (centres undefined), for which, in the data set on Bacteria, the inhibition result was “inactive”. With `Cc1ccc(C2N=C(Nc3nc4ccccc4o3)NC3=C2C(=O)CCC3)s1` (centres undefined), the inhibition entry in the data set with Bacteria was “inactive”. Take `COc1ccc(NC(=O)C2=C(C)NC(Nc3nc4ccccc4o3)=NC2c2ccccc2Br)cc1` (centres undefined): in the data set on Bacteria, the inhibition result was “inactive”. As to `CC1CCC2(C1)N=C(Nc1nc3ccccc3o1)NC1=C2C(=O)CCC1` (centres undefined), in the data set with Bacteria, the inhibition entry was “inactive”. As to `O=C1CCCC2=C1C(c1ccccc1Cl)N=C(Nc1nc3ccccc3o1)N2` (centres undefined), in the data set on Bacteria, the inhibition result is “inactive”.

`CCC1CCC2(C1)N=C(Nc1nc3ccccc3o1)NC1=C2C(=O)CCC1` (centres undefined): the inhibition result in the data set on Bacteria was “inactive”. Same read-out and setting: then `CNC(=O)C1=C(C)NC(Nc2nc3ccccc3o2)=NC1c1n[nH]cc1Cl` (centres undefined), with “inactive”; and `Cc1ccsc1C1N=C(Nc2nc3ccccc3o2)NC2=C1C(=O)CCC2` (centres undefined), with “inactive”; and `O=C1CCCC2=C1C(c1n[nH]cc1Br)N=C(Nc1nc3ccccc3o1)N2` (centres undefined), with “inactive”. As for `O=C1CCCC2=C1C1(CCOCC1)N=C(Nc1nc3ccccc3o1)N2`, the inhibition result in the data set on Bacteria is “inactive”. Regarding `O=C1CCCC2=C1C(c1ccncc1Cl)N=C(Nc1nc3ccccc3o1)N2` (centres undefined), the inhibition result in the data set with Bacteria is “inactive”.

Regarding `O=C1CCCC2=C1C(c1ccc(Cl)cc1)N=C(Nc1nc3ccccc3o1)N2` (centres undefined), in the data set on Bacteria, the inhibition entry is “inactive”. `CC1=C(C(=O)NC2CC2)C(c2nn(C)cc2Cl)N=C(Nc2nc3ccccc3o2)N1` (centres undefined): the inhibition result in the data set with Bacteria is “inactive”.

Turning to `CC1=C(C(=O)Nc2nc3ccccc3s2)C(c2n[nH]cc2Cl)N=C(Nc2nc3ccccc3o2)N1` (centres undefined), in the data set with Bacteria, the inhibition result was “inactive”. On to `CC1=C(C(=O)NC2CCCCC2)C(c2ccccc2Br)N=C(Nc2nc3ccccc3o2)N1` (centres undefined), for which the inhibition result in the data set with Bacteria was “inactive”. Same read-out and setting: as for `CC1=C(C(=O)Nc2nc3ccccc3o2)C2(CCCC2)N=C(Nc2nc3ccccc3o2)N1`, the entry is “inactive”; as for `O=C1CCCC2=C1C(c1ccn[nH]1)N=C(Nc1nc3ccccc3o1)N2` (centres undefined), “inactive”; as for `O=C1CCCC2=C1C(c1ccccc1C(F)(F)F)N=C(Nc1nc3ccccc3o1)N2` (centres undefined), “inactive”. Same read-out and setting: as for `O=C1CCCC2=C1C(c1cccc(C(F)(F)F)c1)N=C(Nc1nc3ccccc3o1)N2` (centres undefined), the entry is “inactive”; as for `Cc1cc(C2N=C(Nc3nc4ccccc4o3)NC3=C2C(=O)CCC3)n[nH]1` (centres undefined), “inactive”; as for `CC1=C(C(=O)Nc2ccon2)C2(CCCC2)N=C(Nc2nc3ccccc3o2)N1`, “inactive”.

Regarding `CC1(C)CC(=O)C2=C(C1)NC(Nc1nc3ccccc3o1)=NC21CCCCC1`, the inhibition result in the data set on Bacteria was “inactive”. For the molecule `Cn1ncc(Cl)c1C1N=C(Nc2nc3ccccc3o2)NC2=C1C(=O)CCC2` (centres undefined), the inhibition result in the data set on Bacteria was “inactive”. On the same count and under the same terms, then `O=C1CCCC2=C1C(c1ccncc1)N=C(Nc1nc3ccccc3o1)N2` (centres undefined), with “inactive”; and `COc1ccccc1C1N=C(Nc2nc3ccccc3o2)NC2=C1C(=O)CCC2` (centres undefined), with “inactive”; and `CC1=C(C(=O)Nc2nncs2)C2(CCCC2)N=C(Nc2nc3ccccc3o2)N1`, with “inactive”. For the molecule `Cn1cc(Br)c(C2N=C(Nc3nc4ccccc4o3)NC3=C2C(=O)CCC3)n1` (centres undefined), the inhibition entry in the data set with Bacteria is “inactive”.

On to `O=C1CCCC2=C1C(c1cccc(Cl)c1)N=C(Nc1nc3ccccc3o1)N2` (centres undefined), for which the inhibition entry in the data set on Bacteria was “inactive”.

For the molecule `O=C1CCCC2=C1C(c1ncccc1Br)N=C(Nc1nc3ccccc3o1)N2` (centres undefined), the inhibition result in the data set with Bacteria is “inactive”. With `O=C1CCCC2=C1C(c1n[nH]cc1Cl)NC(Nc1nc3ccccc3o1)=N2` (centres undefined), the inhibition entry in the data set on Bacteria was “inactive”. For `O=C1CCCC2=C1C1(CCS(=O)(=O)C1)N=C(Nc1nc3ccccc3o1)N2` (centres undefined), the inhibition result in the data set with Bacteria is “inactive”. With `O=C1CC(c2ccccc2)CC2=C1C1(CCCC1)N=C(Nc1nc3ccccc3o1)N2` (centres undefined), the inhibition entry with Bacteria was “inactive”. On to `COc1cccc(C2N=C(Nc3nc4ccccc4o3)NC3=C2C(=O)CCC3)c1` (centres undefined), for which the inhibition result in the data set with Bacteria is “inactive”. In the case of `CC1=C(C(=O)NC2CC2)C(c2n[nH]cc2Cl)N=C(Nc2nc3ccccc3o2)N1` (centres undefined), in the data set with Bacteria, the inhibition entry is “inactive”. With `O=C1CCCC2=C1C(c1cccnc1Br)N=C(Nc1nc3ccccc3o1)N2` (centres undefined), in the data set with Bacteria, the inhibition entry is “inactive”. As for `O=C1CCCC2=C1C1(CCCOC1)N=C(Nc1nc3ccccc3o1)N2` (centres undefined), the inhibition entry in the data set on Bacteria is “inactive”. `CC1=C(C(=O)Nc2ccon2)C(c2ccccc2Br)N=C(Nc2nc3ccccc3o2)N1` (centres undefined): the inhibition entry with Bacteria is “inactive”.

On to `COc1ccccc1NC(=O)C1=C(C)NC(Nc2nc3ccccc3o2)=NC1c1ccccc1Br` (centres undefined), for which the inhibition entry in the data set on Bacteria is “inactive”. Regarding `CC1=C(C(=O)Nc2ccc(C)cc2)C(c2ccccc2Br)N=C(Nc2nc3ccccc3o2)N1` (centres undefined), the inhibition entry in the data set with Bacteria is “inactive”.

`CC1=C(C(=O)Nc2ccccc2)C(c2ccccc2Br)N=C(Nc2nc3ccccc3o2)N1` (centres undefined): the inhibition result with Bacteria was “inactive”.

For `CC1=C(C(=O)Nc2ccccc2C)C(c2ccccc2Br)N=C(Nc2nc3ccccc3o2)N1` (centres undefined), in the data set with Bacteria, the inhibition entry is “inactive”.

Turning to `O=C1CCCC2=C1C(c1cccc(F)c1)N=C(Nc1nc3ccccc3o1)N2` (centres undefined), the inhibition result in the data set on Bacteria was “inactive”. `CN(C)c1ccc(C2N=C(Nc3nc4ccccc4o3)NC3=C2C(=O)CCC3)cc1` (centres undefined): in the data set on Bacteria, the inhibition result is “inactive”. As for `O=C1CCCC2=C1C(c1ccccc1Br)N=C(Nc1nc3ccccc3o1)N2` (centres undefined), the inhibition result in the data set with Bacteria was “inactive”. As to `CC1=C(C(=O)NC2CCCC2)C(c2n[nH]cc2Cl)N=C(Nc2nc3ccccc3o2)N1` (centres undefined), in the data set with Bacteria, the inhibition entry was “inactive”. Take `O=C1CCCC2=C1C(c1ccccc1)N=C(Nc1nc3ccccc3o1)N2` (centres undefined): the inhibition entry with Bacteria is “inactive”.

The values are drawn from ChEMBL document CHEMBL5052821, “Galactokinase inhibitors for the treatment and prevention of associated diseases and disorders” (2019).
